Measured values from patent EP0472181B1, “5-Amine substituted adenosine analogs as immunosuppressants” (MERRELL PHARMACEUTICALS INC., priority 1990, dated 1992).

Tests used:
[1] = system: Cloned IL-2 dependent cytolytic T lymphocytes (CTLL-20); experiment: Inhibition of interleukin-2 dependent T-cell growth in vitro: cell counts by trypan blue exclusion; assay type: cell-based; conditions: 10 Units/mL IL-2
Experimental: (§1) Inhibition of interleukin-2 (IL-2) dependent T-cell growth in vitro was determined essentially as described by Bowlin et al. [Cell Immunol. 98, 341-50 (1986)]. Cloned IL-2 dependent cytolytic T lymphocytes (CTLL-20), incubated alone or in the presence of (cis)-5'-deoxy-5'-[(4-amino-2-butenyl) methylamino]adenosine (Compound A) at varying concentrations, were stimulated with 10 Units/mL of IL-2 and were grown in culture. After 72 hours, cell counts were determined based on trypan blue exclusion.
as §1, with “in Example X.” for “by Bowlin et al. [Cell Immunol. 98, 341-50 (1986)].”, “100µM,” for “varying concentrations,”, “culture for 1, 2, 3 or 4 days. At the end of incubation,” for “culture. After 72 hours,”

[2] = system: Cloned IL-2 dependent cytolytic T lymphocytes (CTLL-20); experiment: Inhibition of interleukin-2 dependent T-cell growth in vitro: DNA synthesis activity by [^3H]-TdR pulse after IL-2 restimulation; assay type: cell-based; conditions: [^3H]-TdR final 6 hours
Experimental: The CTLL-20 cells were restimulated with IL-2 (10 units/mL) for 24 hours and were pulsed for the final 6 hours with [^3H]-TdR to measure DNA synthesis activity essentially as described by Bowlin et al. [Cell Immunol. 98, 341-50 (1986)].
The CTLL-20 cells were then restimulated with IL-2 (10 units/mL) for 24 hours and were pulsed for the final 6 hours with [^3H]-TdR to measure DNA synthesis activity essentially as described for Example X.

`CN(C/C=C\CN)C[C@H]1O[C@@H](n2cnc3c(N)ncnc32)[C@H](O)[C@@H]1O` (relative stereo) [Compound A, (cis)-5'-deoxy-5'-[(4-amino-2-butenyl)methylamino]adenosine] was tested, and the “Cell Count Number Recovered” value ([1]; Compound A 1 µM, after 72 hours) was 4.0x10^6, the “Cell Count Number Recovered” value ([1]; Compound A 10 µM, after 72 hours) was 2.0x10^6 and the “Cell Count Number Recovered” value ([1]; Compound A 100 µM, after 72 hours) was 1.0x10^6. The inhibition at 100 µM ([1]; T-lymphocyte, 24 h, time course: incubation time 1 day, Compound A 100 µM, read-out: Cell Count (% Reduction over Control) (converted)) was 40%, the inhibition at 100 µM ([1]; T-lymphocyte, 48 h, time course: incubation time 2 days, Compound A 100 µM, read-out: Cell Count (% Reduction over Control) (converted)) was 78% and the inhibition at 100 µM ([1]; T-lymphocyte, 72 h, time course: incubation time 3 days, Compound A 100 µM, read-out: Cell Count (% Reduction over Control) (converted)) was 85%. For the same compound, the inhibition at 100 µM ([1]; T-lymphocyte, 96 h, time course: incubation time 4 days, Compound A 100 µM, read-out: Cell Count (% Reduction over Control) (converted)) was 64%, the inhibition at 1 µM ([1]; T-lymphocyte, Compound A 1 µM, after 72 hours, read-out: Cell Count (% Reduction over Group 1) (converted)) was 39% and the inhibition at 10 µM ([1]; T-lymphocyte, Compound A 10 µM, after 72 hours, read-out: Cell Count (% Reduction over Group 1) (converted)) was 70%. The inhibition at 100 µM ([1]; T-lymphocyte, Compound A 100 µM, after 72 hours, read-out: Cell Count (% Reduction over Group 1) (converted)) was 85%, the “Cell Count Number Recovered” value ([1]; time course: incubation time 1 day, Compound A 100 µM) was 0.3x10^6 and the “Cell Count Number Recovered” value ([1]; time course: incubation time 2 days, Compound A 100 µM) was 0.7x10^6. The “Cell Count Number Recovered” value ([1]; time course: incubation time 3 days, Compound A 100 µM) was 1.0x10^6, the “Cell Count Number Recovered” value ([1]; time course: incubation time 4 days, Compound A 100 µM) was 1.7x10^6 and the “DNA Synthesis CPM” value ([2]; Compound A 1 µM, 72 hours culture, restimulated with IL-2 10 units/mL for 24 hours) was 19218 CPM. The “DNA Synthesis CPM” value ([2]; Compound A 10 µM, 72 hours culture, restimulated with IL-2 10 units/mL for 24 hours) was 10005 CPM, the “DNA Synthesis CPM” value ([2]; Compound A 100 µM, 72 hours culture, restimulated with IL-2 10 units/mL for 24 hours) was 8114 CPM and the inhibition at 100 µM ([2]; T-lymphocyte, 48 h, time course: incubation time 2 days, Compound A 100 µM, then IL-2 restimulation 24 hours, read-out: DNA Synthesis (% Reduction over Control)) was 45%. The inhibition at 100 µM ([2]; T-lymphocyte, 72 h, time course: incubation time 3 days, Compound A 100 µM, then IL-2 restimulation 24 hours, read-out: DNA Synthesis (% Reduction over Control)) was 76%, the inhibition at 100 µM ([2]; T-lymphocyte, 96 h, time course: incubation time 4 days, Compound A 100 µM, then IL-2 restimulation 24 hours, read-out: DNA Synthesis (% Reduction over Control)) was 73% and the inhibition at 1 µM ([2]; T-lymphocyte, Compound A 1 µM, 72 hours culture, restimulated with IL-2 10 units/mL for 24 hours, read-out: DNA Synthesis (% Reduction over Group 1)) was 43%. For the same compound, the inhibition at 10 µM ([2]; T-lymphocyte, Compound A 10 µM, 72 hours culture, restimulated with IL-2 10 units/mL for 24 hours, read-out: DNA Synthesis (% Reduction over Group 1)) was 70%, the inhibition at 100 µM ([2]; T-lymphocyte, Compound A 100 µM, 72 hours culture, restimulated with IL-2 10 units/mL for 24 hours, read-out: DNA Synthesis (% Reduction over Group 1)) was 76% and the inhibition at 100 µM ([2]; T-lymphocyte, time course: incubation time 1 day, Compound A 100 µM, then IL-2 restimulation 24 hours, read-out: DNA Synthesis (% Reduction over Control)) was 59%. The “DNA Synthesis CPM” value ([2]; time course: incubation time 1 day, Compound A 100 µM, then IL-2 restimulation 24 hours) was 7622 CPM, the “DNA Synthesis CPM” value ([2]; time course: incubation time 2 days, Compound A 100 µM, then IL-2 restimulation 24 hours) was 6197 CPM and the “DNA Synthesis CPM” value ([2]; time course: incubation time 3 days, Compound A 100 µM, then IL-2 restimulation 24 hours) was 8114 CPM. For the same compound, the “DNA Synthesis CPM” value ([2]; time course: incubation time 4 days, Compound A 100 µM, then IL-2 restimulation 24 hours) was 8863 CPM.
